As usually defined, the EC50 is the concentration at which the effect is half-maximal. A low value points to a more potent agent.

Each structure is given as a SMILES string. Read-outs that look alike come from different tables or passages of the source.

The values below come from patent US11254663B2 (BRISTOL-MYERS SQUIBB COMPANY, priority 2019, dated 2022).

The target of this test is FXR (Homo sapiens (Human), UniProt Q96RI1). Description: transient human FXR/Gal4-luciferase reporter assay. It counts as cell-based. How it is done: A Gal4-hFXR fusion construct reporter system was used as the primary assay to characterize compound activity. A construct including 5 copies of the Gal4 promoter response element upstream of a firefly luciferase reporter cDNA was stably expressed in HEK293 cells. This reporter cell line was maintained in Dulbecco's Modified Eagle's medium (DMEM; Gibco) supplemented with 1% penicillin-streptomycin (P/S) solution, 500 μg/mL Zeocin and 10% charcoal/dextran-treated fetal bovine serum (cs-FBS) at 37° C. in a humidified 5% CO2 atmosphere. Another plasmid was constructed in which the human cytomegalovirus promoter in the pcDNA3.1 vector directs the expression of the cDNA encoding a fusion protein comprised of the DNA binding domain from the Gal4 transcription factor fused to the ligand binding domain from human FXR.
The day prior to transfection, the reporter cells in culture are detached from the plate with trypsin and plated into a T75 flask at a sufficient density to achieve approximately 90% confluence the next morning. The transfection reagents are prepared by separately diluting 25 μg of the pcDNA3.1-Gal4-FXR plasmid into 1.87 mL of Opti-MEM (Thermo-Fisher), and 40 μL of Lipofectamine 2000 (Thermo-Fisher) into 1.87 mL of Opti-MEM, and then adding the diluted DNA solution into the diluted Lipofectamine 2000 solution and incubating at room temperature for 15-20 minutes. The mixture is further diluted with 10 mL of a solution comprised of DMEM, 10% cs-FBS, and 1% P/S immediately prior to transferring to the cells. The maintenance culture media is aspirated from the cells and the final transfection mixture is added before the cells are incubated overnight at 37° C. in a humidified 5% CO2 atmosphere. This protocol can be scaled up, and the transiently transfected cells can be cryopreserved in an assay-ready format.
For compound testing, 100 nL of the compounds (serial dilutions in DMSO) are dispensed with an Echo acoustic dispenser (Labcyte) into the wells of a Corning/Costar clear bottom 384-well white plate. The transfected cells are harvested, counted, and diluted such that 10-25,000 cells in 25 μL are plated into each well of the 384-well compound assay plate. The compound-treated cells are incubated overnight at 37° C. in a humidified 5% CO2 atmosphere. The next morning 25 μL of Steady-Glo (Promega) are added to each well of the plate, the mixture is incubated for 15 min. with shaking, and luminescence is measured on an Envision (Perkin Elmer) plate reader.

The mark [1] stands for this setting: Gal4-hFXR fusion construct, HEK293 reporter cells, response relative to 8 μM GW-4064.

Sequence of FXR (Q96RI1 262-486): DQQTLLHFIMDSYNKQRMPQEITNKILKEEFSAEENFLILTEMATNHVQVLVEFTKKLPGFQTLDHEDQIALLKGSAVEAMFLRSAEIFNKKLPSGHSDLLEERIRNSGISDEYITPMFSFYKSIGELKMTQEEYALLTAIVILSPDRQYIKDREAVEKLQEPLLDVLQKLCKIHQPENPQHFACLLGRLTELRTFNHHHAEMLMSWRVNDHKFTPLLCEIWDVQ

As to `CC(C)(C#N)Oc1ccc(-c2cc(N(CC34CCC(c5noc(C(C)(C)F)n5)(CC3)CC4)C(=O)[C@H]3C[C@](O)(C(F)(F)F)C3)ccc2F)cc1` [Example 582, (cis)-N-(4′-((2-cyanopropan-2-yl)oxy)-6-fluoro-[1,1′-biphenyl]-3-yl)-N-((4-(5-(2-fluoropropan-2-yl)-1,2,4-oxadiazol-3-yl)bicyclo[2.2.2]octan-1-yl)methyl)-3-hydroxy-3-(trifluoromethyl)cyclobutane-1-carboxamide], under setting [1], the EC50 worked out at 0.048 µM.

In turn, `CC(C)(O)c1ccc(-c2cccc(N(CC34CCC(c5noc(C(C)(C)F)n5)(CC3)CC4)C(=O)[C@H]3C[C@](O)(C(F)(F)F)C3)c2)nn1` [Example 593, (cis)-N-((4-(5-(2-fluoropropan-2-yl)-1,2,4-oxadiazol-3-yl)bicyclo[2.2.2]octan-1-yl)methyl)-3-hydroxy-N-(3-(6-(2-hydroxypropan-2-yl)pyridazin-3-yl)phenyl)-3-(trifluoromethyl)cyclobutane-1-carboxamide] came in with an EC50 under setting [1] of 0.566 µM.

On to `COc1ccc(-c2cccc(N(CC34CCC(c5ccc(C6(C#N)CC6)cc5)(CC3)OC4)C(=O)C34CC(F)(C3)C4)c2)cn1` [Example 350, N-((1-(4-(1-cyanocyclopropyl)phenyl)-2-oxabicyclo[2.2.2]octan-4-yl)methyl)-3-fluoro-N-(3-(6-methoxypyridin-3-yl)phenyl)bicyclo[1.1.1]pentane-1-carboxamide], for which a half-maximal effect under setting [1] (EC50) was put at 0.296 µM.

The molecule `COc1ccc(-c2cccc(N(CC34CCC(c5ccc(C6(C#N)CC6)cc5)(CC3)OC4)C(=O)C34CC(F)(C3)C4)c2)cc1` [Example 349, N-((1-(4-(1-cyanocyclopropyl)phenyl)-2-oxabicyclo[2.2.2]octan-4-yl)methyl)-3-fluoro-N-(4′-methoxy-[1,1′-biphenyl]-3-yl)bicyclo[1.1.1]pentane-1-carboxamide] returned an EC50 under setting [1] of 0.13 µM.

Turning to `COc1cc(-c2cccc(N(CC34CCC(c5nnc(C)o5)(CC3)CC4)C(=O)C3CCC3)c2)ccn1` [Example 231, N-(3-(2-methoxypyridin-4-yl)phenyl)-N-((4-(5-methyl-1,3,4-oxadiazol-2-yl)bicyclo[2.2.2]octan-1-yl)methyl)cyclobutanecarboxamide], the EC50 under setting [1] amounted to 0.592 µM. Compared with the last molecule, the EC50 is about 4.6-fold higher.

As to `CC(C)(C)c1nc(C23CCC(CN(C(=O)C45CC(F)(C4)C5)c4cncc(-c5ncc(OC(F)F)cn5)c4)(CC2)CC3)no1` [Example 485, N-((4-(5-(tert-butyl)-1,2,4-oxadiazol-3-yl)bicyclo[2.2.2]octan-1-yl)methyl)-N-(5-(5-(difluoromethoxy)pyrimidin-2-yl)pyridin-3-yl)-3-fluorobicyclo[1.1.1]pentane-1-carboxamide], the EC50 under setting [1] was found to be 0.041 µM.

With `O=C(N(CC12CCC(c3noc(C4(C(F)(F)F)CC4)n3)(CC1)CC2)c1cccc(-c2cnc3nc(C4CC4)sc3c2)c1)C12CC(F)(C1)C2` [Example 526, N-(3-(2-cyclopropylthiazolo[4,5-b]pyridin-6-yl)phenyl)-3-fluoro-N-((4-(5-(1-(trifluoromethyl)cyclopropyl)-1,2,4-oxadiazol-3-yl)bicyclo[2.2.2]octan-1-yl)methyl) bicyclo[1.1.1]pentane-1-carboxamide], the EC50 is 0.497 µM.

Take `N#CC1(c2ccc(-c3cccc(N(CC45CCC(c6noc(C7(F)CC7)n6)(CC4)CC5)C(=O)[C@H]4C[C@](O)(C(F)(F)F)C4)c3)cc2F)CC1` [Example 578, (cis)-N-(4′-(1-cyanocyclopropyl)-3′-fluoro-[1,1′-biphenyl]-3-yl)-N-((4-(5-(1-fluorocyclopropyl)-1,2,4-oxadiazol-3-yl)bicyclo[2.2.2]octan-1-yl)methyl)-3-hydroxy-3-(trifluoromethyl)cyclobutane-1-carboxamide]: the EC50 under setting [1] is 0.092 µM. In other words, the double-digit nanomolar range.

For `CC(F)(F)c1nc(C23CCC(CN(C(=O)C45CC(F)(C4)C5)c4ccc(F)c(N5CCC5)c4)(CC2)CC3)no1` [Example 575, N-(3-(azetidin-1-yl)-4-fluorophenyl)-N-((4-(5-(1,1-difluoroethyl)-1,2,4-oxadiazol-3-yl)bicyclo[2.2.2]octan-1-yl)methyl)-3-fluorobicyclo[1.1.1]pentane-1-carboxamide], under setting [1], the midpoint of the response, the EC50, lay at 0.41 µM.

`CCOc1cnc(-c2cccc(N(CC34CCC(c5ccc(C(F)(F)F)cn5)(CC3)CC4)C(=O)C34CC(F)(C3)C4)c2)nc1` [Example 498, N-(3-(5-ethoxypyrimidin-2-yl)phenyl)-3-fluoro-N-((4-(5-(trifluoromethyl)pyridin-2-yl)bicyclo[2.2.2]octan-1-yl)methyl)bicyclo[1.1.1]pentane-1-carboxamide] had an EC50 of 0.524 µM. In other words, the sub-micromolar range.

Under setting [1], `N#Cc1ccc(-c2cccc(N(CC34CCC(c5nc(C6CC6)no5)(CC3)CC4)C(=O)C34CC(F)(C3)C4)c2)nc1` [Example 297, N-(3-(5-cyanopyridin-2-yl)phenyl)-N-((4-(3-cyclopropyl-1,2,4-oxadiazol-5-yl)bicyclo[2.2.2]octan-1-yl)methyl)-3-fluorobicyclo[1.1.1]pentane-1-carboxamide] yielded an EC50 of 1.25 µM.

On to `CCOc1ncc(-c2cccc(N(CC34CCC(c5nc(C(C)(C)C)no5)(CC3)CC4)C(=O)C34CC(NC(=O)OC(C)(C)C)(C3)C4)c2)cn1` [Example 505, tert-butyl (3-(((4-(3-(tert-butyl)-1,2,4-oxadiazol-5-yl)bicyclo[2.2.2]octan-1-yl)methyl) (3-(2-ethoxypyrimidin-5-yl)phenyl)carbamoyl)bicyclo[1.1.1]pentan-1-yl)carbamate], for which it took 0.621 µM to reach a half-maximal effect (EC50).

Turning to `CC(C)(F)c1nc(C23CCC(CN(C(=O)OC(C)(C)C(F)(F)F)c4cc(-c5cnn(CC6COC6)c5)c(F)cn4)(CC2)CC3)no1` [Example 621, 1,1,1-trifluoro-2-methylpropan-2-yl(5-fluoro-4-(1-(oxetan-3-ylmethyl)-1H-pyrazol-4-yl)pyridin-2-yl)((4-(5-(2-fluoropropan-2-yl)-1,2,4-oxadiazol-3-yl)bicyclo[2.2.2]octan-1-yl)methyl)carbamate], the EC50 under setting [1] came out at 0.084 µM. That is a double-digit nanomolar value.

For the molecule `CCOc1ncc(-c2cccc(N(CC34CCC(c5noc(C(C)(C)C)n5)(CC3)CC4)C(=O)C3CC(O)(C(F)(F)F)C3)c2)cn1` [Example 509, (1S,3S)—N-((4-(5-(tert-butyl)-1,2,4-oxadiazol-3-yl)bicyclo[2.2.2]octan-1-yl)methyl)-N-(3-(2-ethoxypyrimidin-5-yl)phenyl)-3-hydroxy-3-(trifluoromethyl)cyclobutane-1-carboxamide], it took 0.23 µM to reach a half-maximal effect (EC50).

In the case of `CCOc1ccc(-c2cccc(N(CC34CCC(c5nc(C6CC6)no5)(CC3)CC4)C(=O)C34CC(F)(C3)C4)c2)cc1` [Example 290, N-((4-(3-cyclopropyl-1,2,4-oxadiazol-5-yl)bicyclo[2.2.2]octan-1-yl)methyl)-N-(4′-ethoxy-[1,1′-biphenyl]-3-yl)-3-fluorobicyclo[1.1.1]pentane-1-carboxamide], the half-maximal effective concentration (EC50) under setting [1] was 0.06 µM.

The molecule `COc1ncc(C23CCC(CN(C(=O)C45CC(F)(C4)C5)c4cccc(-c5ccc6nc(C)sc6c5)c4)(CC2)CO3)cn1` [Example 558, 3-Fluoro-N-((1-(2-methoxypyrimidin-5-yl)-2-oxabicyclo[2.2.2]octan-4-yl)methyl)-N-(3-(2-methylbenzo[d]thiazol-6-yl)phenyl)bicyclo[1.1.1]pentane-1-carboxamide] showed an EC50 under setting [1] of 0.561 µM.
